Test results taken from patent US20240409536A1, “COMPOUNDS AND METHODS FOR MODULATING SPLICING” (REMIX THERAPEUTICS INC., priority 2021, published 2024).

Tested on: MYB mRNA
Test: Splicing RT-qPCR assay, MYB canonical (CJ) and alternative (AJ) junction mRNA
Type: cell-based
Details: Homo sapiens, A673 or K562 cells, 24 hours; for IC50: decrease in canonical junction mRNA; for AC50: increase in alternative junction mRNA
In short: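 Splice switching was scored by qPCR detection of the new alternative-exon junction (AJ) alongside the canonical junction (CJ). Cell lines A673 or K562 received compound 24 h, top dose 10 uM final.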

Structure (SMILES)	IC50 [nM]	AC50 [nM]
Cc1cn2cc(NC(=O)c3ccc(NC4CCNC4)c4nccnc34)cc(F)c2n1 (centres unmarked) [Compound 316]	100 to 1000	1000 to 10000
Cc1cn2cc(NC(=O)c3ccc(N4CCNCC4)c4nccnc34)cc(F)c2n1 [Compound 111]	100 to 1000	100 to 1000
Cc1cn2nc(NC(=O)c3ccc(C4CCNCC4)c4ccnnc34)cc(C)c2n1 [Compound 113]	1000 to 10000	100 to 1000
COc1nc2c(F)cc(NC(=O)c3ccc(N4C[C@@H](C)N[C@@H](C)C4)c4nccnc34)cc2o1 [Compound 342]	> 10000	> 10000
C[C@@H]1CN(c2ccc(C(=O)Nc3cc(F)c4ncccc4c3)c3nccnc23)C[C@H](C)N1 [Compound 344]	1000 to 10000	> 10000
COc1nc(NC(=O)c2ccc(N3C[C@@H](C)N[C@@H](C)C3)c3nccnc23)cc2oc(C)nc12 [Compound 298]	100 to 1000	100 to 1000
COc1nc2c(N3C[C@@H](C)N[C@@H](C)C3)ccc(C(=O)Nc3cc(F)c4nc(C)cn4c3)c2nc1C [Compound 260, 8-((3R,5S)-3,5-dimethylpiperazin-1-yl)-N-(8-fluoro-2-methylimidazo[1,2-a]pyridin-6-yl)-2-methoxy-3-methylquinoxaline-5-carboxamide; 2,2,2-trifluoroacetate]	100 to 1000	100 to 1000
CNc1nc(NC(=O)c2ccc(N3C[C@@H](C)N[C@@H](C)C3)c3nccnc23)cn2cc(C)nc12 [Compound 308]	1000 to 10000	1000 to 10000
COc1nc(NC(=O)c2ccc(N3C[C@@H](C)N[C@@H](C)C3)c3nccnc23)cn2cc(C)nc12 [Compound 277]	< 100	< 100
Cc1cn2nc(NC(=O)c3ccc(N4C[C@@H](C)N[C@@H](C)C4)c4nccnc34)cc2c(C)n1 [Compound 354]	100 to 1000	100 to 1000

Now from value to compound, other results behind:

IC50 [nM]	Structure (SMILES)	AC50 [nM]
100 to 1000	Cc1cn2cc(NC(=O)c3ccc(N4C[C@@H](C)N[C@@H](C)C4)c4ncc(OC5CC5)nc34)cc(F)c2n1 [Compound 351]	100 to 1000
100 to 1000	Cc1cn2cc(NC(=O)c3ccc(N4CCN[C@@H](C5CC5)C4)c4nccnc34)cc(F)c2n1 [Compound 252, 8-[(3S)-3-cyclopropylpiperazin-1-yl]-N-{8-fluoro-2-methylimidazo[1,2-a]pyridin-6-yl}quinoxaline-5-carboxamide]	100 to 1000
100 to 1000	CNC1CCN(c2ccc(C(=O)Nc3cc(F)c4nc(C)cn4c3)c3nc(OCCOC)ccc23)C1 (centres unmarked) [Compound 234]	100 to 1000
< 100	CCOc1cnc2c(N3C[C@@H](C)N[C@@H](C)C3)ccc(C(=O)Nc3cc(F)c4nc(C)cn4c3)c2n1 [Compound 296]	< 100
< 100	Cc1cn2cc(NC(=O)c3ccc(N4C[C@@H](C)N[C@@H](C)C4)c4ncc(N(C)C)nc34)cc(F)c2n1 [Compound 283]	100 to 1000
< 100	CN[C@H]1CCN(c2ccc(C(=O)Nc3cc(F)c4nc(C)cn4c3)c3nnccc23)C1 [Compound 239, (S)—N-(8-fluoro-2-methylimidazo[1,2-a]pyridin-6-yl)-5-(3-(methylamino)pyrrolidin-1-yl)cinnoline-8-carboxamide]	100 to 1000
100 to 1000	Cc1cn2cc(NC(=O)c3ccc(N4CCN[C@H](CO)C4)c4nccnc34)cc(F)c2n1 [Compound 362]	100 to 1000
< 100	Cc1cn2cc(NC(=O)c3ccc(N4CCN[C@H](C5CC5)C4)c4nccnc34)cc(F)c2n1 [Compound 253, 8-[(3R)-3-cyclopropylpiperazin-1-yl]-N-{8-fluoro-2-methylimidazo[1,2-a]pyridin-6-yl}quinoxaline-5-carboxamide]	< 100
100 to 1000	Cc1cn2cc(NC(=O)c3ccc(N4C[C@@H](C5CC5)N[C@@H](C)C4)c4nccnc34)cc(F)c2n1 [Compound 267, 8-((3R,5S)-3-cyclopropyl-5-methylpiperazin-1-yl)-N-(8-fluoro-2-methylimidazo[1,2-a]pyridin-6-yl)quinoxaline-5-carboxamide]	100 to 1000
